Reference: patent publication US20240131038A1, “ANTI-INFLAMMATORY COMPOSITIONS COMPRISING CANNABIDIOL, DELTA-9-TETRAHYDROCANNABINOL AND LINALOOL” (Cymra Life Sciences Limited, priority 2020, published 2024)
Like-named read-outs stand apart in the source and are kept apart here.

What was measured:
Format in all cases: cell-based, murine
Details in all cases: for IC50: Mus musculus
NO release = assay: Nitric oxide (NO) assay: NO release in LPS-stimulated RAW264.7 macrophages (Griess reagent)
Protocol: (§1) Anti-inflammatory activity was determined in lipopolysaccharide (LPS) stimulated murine macrophages, RAW264.7 cells cultured in standard cell culture media (DMEM, Fetal bovine serum 5%) and incubated in the presence or absence of different test compounds/extracts and controls. The production of inflammatory mediators, including NO, cytokines TNFα and IL-6, were measured by established methods using commercial ELISA kits (Table 3). Each sample was tested with at least 6 concentrations (using 3 replicates; i.e., n=9), with relevant internal controls (Table 3). The cytotoxicity of each sample tested was determined by MTT assay.
(§2) Briefly, for the NO, TNFα and IL-6 assays the cultured RAW264.7 cells were counted and plated (0.8×10^5 cells/well) in 96 well plates and incubated for 48 hours. The medium was then aspirated and replaced with fresh medium followed by the addition of the test compounds. The compounds were incubated for 1 hour prior to the addition of the stimulant. The plates were then incubated for 18 hours and the supernatant analyzed for the inflammatory mediator of interest, the remaining cell viability was determined by MTT.
(§3) The data are presented as mean and standard error of mean (SEM). The dose response curves were fit using Graph Pad Prism. The 95% confidence intervals (CI) were calculated using the whole data set and give an estimate error in the IC50 value. The 95% CI for the IC50 where the IC50 was not reached in the testing concentrations require graphical extrapolation to calculate the IC50. Where the IC50 has been estimated by graphical extrapolation “˜” is used to indicate that it is an estimate and not experimentally determined, unless otherwise stated. The graphical extrapolation results in a wider 95% confidence interval.
(§4) The synergism combination index (CI) and isobologram IC50 weightings were calculated using Compsyn software. The dose response curve generated in GraphPad prism was transformed into 15 points representing the curve. These 15 points were then entered into the Compsyn program that generated a curve to fit the data points. This method was preferable to closely replicate the complete dose response curve in the synergy program. The Compsyn fit curve was then used for synergy calculations.
(§5) A CI value of less than 0.5 is considered highly synergistic, a CI of less than 1 indicates synergy, a CI of from 1.5 to 1 is considered additive, a CI of from 4 to 1.5 is indifferent and a CI greater than 4 is considered antagonism.

IL-6 release = assay: IL-6 assay: IL-6 release in LPS-stimulated RAW264.7 macrophages (ELISA)
Protocol: as §1, §2, §3, §4, §5

TNF-α release = assay: TNF-α assay: TNF-α release in LPS-stimulated RAW264.7 macrophages (ELISA)
Protocol: as §1, §2, §3, §4, §5

[1] = RAW264.7, 18 h, read-out: IC50 for NO inhibition
[2] = RAW264.7, 18 h, IL-6 assay, total concentration of the combination, Table 11, read-out: GraphPad IC50
[3] = RAW264.7, IL-6 assay, Compusyn fit curve, Table 11, read-out: Compusyn IC50
[4] = LPS-stimulated RAW264.7 cells, 18 h, Table 10, read-out: IC50 for IL-6 inhibition
[5] = RAW264.7, 18 h, TNF-α inhibition, total concentration of the combination, Table 8, read-out: GraphPad IC50
[6] = RAW264.7, TNF-α inhibition, Compusyn fit curve, Table 8, read-out: Compusyn IC50
[7] = LPS-stimulated RAW264.7 cells, 18 h, Table 7, read-out: IC50 for TNF-α inhibition
[8] = RAW264.7, read-out: Compusyn IC50

Row | Compound | IC50 (NO release; [1]) [mg/L] | IL-6 inhibition and synergy, result in words (IL-6 release; LPS-stimulated RAW264.7 cells) | IC50 (IL-6 release; [2]) [mg/L] | IC50 (IL-6 release; [3]) [mg/L] | IC50 (IL-6 release; [4]) [mg/L] | TNF-α inhibition and synergy, result in words (TNF-α release; LPS-stimulated RAW264.7 cells) | IC50 (TNF-α release; [5]) [mg/L] | IC50 (TNF-α release; [6]) [mg/L] | IC50 (TNF-α release; [7]) [mg/L] | NO inhibition and synergy, result in words (NO release; LPS-stimulated RAW264.7 cells) | IC50 (NO release; [8]) [mg/L] | Compusyn IC50 (IL-6 release; IL-6 assay, Table 12) [mg/L] | Compusyn IC50 (TNF-α release; TNF-α assay, Table 9) [mg/L] | Compusyn IC50 (NO release; NO assay, Table 6) [mg/L]
1 | CC(=N)NCc1cccc(CN)c1 [1400 W, N-(3-(Aminomethyl)benzyl)acetamidine] | 1.2 | – | – | – | – | – | – | – | – | – | – | – | – | –
2 | C=C(C)[C@@H]1CCC(C)=C[C@H]1c1c(O)cc(CCCCC)cc1O [CBD, cannabidiol] | 1.4 | most active compound for IL-6 inhibition | 1.4 | 1.4 | 1.4 | most active compound for TNF-α inhibition | 4.6 | 4.6 | 4.6 | most active compound for NO inhibition | 1.4 | – | – | –
3 | C[C@@H]1C[C@H]2[C@@H]3CCC4=CC(=O)C=C[C@]4(C)[C@@]3(F)[C@@H](O)C[C@]2(C)[C@@]1(O)C(=O)CO [Dexamethasone, dexamethasone] | – | – | – | – | 0.016 | – | – | – | 2.7 | – | – | – | – | –
4 | C=CC(C)(O)CCC=C(C)C (stereo not drawn) [Linalool, linalool] | > 240 | – | > 240 | > 240 | > 240 | – | > 240 | > 240 | > 240 | – | > 240 | >240 | >240 | >240
5 | CCCCCc1cc(O)c2c(c1)OC(C)(C)[C@@H]1CCC(C)=C[C@@H]21 [THC, Δ-9-tetrahydrocannabinol] | 6.5 | – | 4.2 | 4.2 | 4.2 | – | 44 | 45 | 44 | – | 6.5 | – | – | –
